The source of these data is publication PMC6255837, “Ternary crystal structure of human RORγ ligand-binding-domain, an inhibitor and corepressor peptide provides a new insight into corepressor interaction” (Scientific Reports, 2018).

For one assay, the system named is IL-17 release. Set-up: method as in PMID 26819660. The following applies: orally administered, inflammatory model mice; cited from earlier work.
For another assay, the system named is Th17 cells. Also on record: method as in earlier work. The following applies: cited from earlier work.
For the next assay, the target named is T1, Human RORγ (Homo sapiens, UniProt P51449).
T1 sequence (P51449 1-518): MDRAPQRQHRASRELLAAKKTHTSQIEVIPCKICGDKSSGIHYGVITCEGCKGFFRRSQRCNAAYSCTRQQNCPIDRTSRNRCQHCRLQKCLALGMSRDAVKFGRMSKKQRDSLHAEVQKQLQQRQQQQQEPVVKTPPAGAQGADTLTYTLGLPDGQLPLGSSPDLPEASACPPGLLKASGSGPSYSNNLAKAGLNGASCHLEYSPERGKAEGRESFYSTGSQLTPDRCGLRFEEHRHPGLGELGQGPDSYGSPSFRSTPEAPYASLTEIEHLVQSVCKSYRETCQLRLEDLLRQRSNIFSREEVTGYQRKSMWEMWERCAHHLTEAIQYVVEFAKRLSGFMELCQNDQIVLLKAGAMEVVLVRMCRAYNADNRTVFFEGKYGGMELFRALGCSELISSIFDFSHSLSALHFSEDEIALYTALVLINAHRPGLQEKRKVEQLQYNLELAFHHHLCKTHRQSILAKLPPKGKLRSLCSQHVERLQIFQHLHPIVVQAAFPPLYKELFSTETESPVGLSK
The assay is described as follows: Human RORγ luciferase (LUC) reporter assay. The format is cell-based. As to conditions: for LUC activity relative to compound A: fold difference of EC50 versus compound A. As to the method:
Figure 1 The relative efficacy (RE) of CoR peptide recruitment to the RORγ-LBD and LUC activity by inverse agonists. […] Background activity in the absence of a standard inverse agonist is defined as 0% response; and maximum activity induced by a standard inverse agonist at 100μM as 100% response. […] A value of 100% is given to cells without inverse agonist in LUC assay. […] Human RORγ LUC assays were carried out in accordance with the method of Madoux et al.[31] with some modifications and described previously. EC50 was calculated by curve-fitting in GraphPad Prism. Detailed descriptions of synthesis for the compounds are described elsewhere[9],[22].
(In general: A reporter such as luciferase makes a cellular process visible.)

Assay [1] deals with T2, RORγ-LBD (Homo sapiens, UniProt P51449).
T2 construct: the glutathione-S-transferase (GST)-tagged RORγ-LBD produced in Sf9 cells; GST; made in house; host or cells: Sf9 cells
T2 sequence (P51449 269-508 limits assumed): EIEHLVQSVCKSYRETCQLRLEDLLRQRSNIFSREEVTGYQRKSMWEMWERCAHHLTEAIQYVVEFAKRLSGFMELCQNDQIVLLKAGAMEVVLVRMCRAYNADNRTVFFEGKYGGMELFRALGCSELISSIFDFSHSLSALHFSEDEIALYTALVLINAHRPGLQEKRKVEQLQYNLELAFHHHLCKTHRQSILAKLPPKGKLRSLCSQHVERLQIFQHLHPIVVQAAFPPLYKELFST
The assay is described as follows: FRET-based CoA peptide releasing assay (dual TR-FRET). As to conditions: GST-tagged RORγ-LBD, read-out: EC50 release of CoA peptide (FRET). The format is biochemical. Here is the method: Figure 1 The relative efficacy (RE) of CoR peptide recruitment to the RORγ-LBD and LUC activity by inverse agonists. […] Background activity in the absence of a standard inverse agonist is defined as 0% response; and maximum activity induced by a standard inverse agonist at 100μM as 100% response. […] A value of 100% is given to cells without inverse agonist in LUC assay.
(§1) Detailed methods on plasmid construction, sample preparation, crystallization, structure determination, and FRET and LUC assays are provided in previous publications. […] The purified proteins were crystallized in complex with rockogenin and CoR peptide (ternary complex structures). […] The complex structures were determined by molecular replacement method using the RORγ-LBD apo structures as a search model. Diffraction data of the RORγ-LBD were collected at 21IDF (APS), Chicago, USA. Figures were generated using PyMOL[30].
(§2) For TR-FRET assays, the glutathione-S-transferase (GST)-tagged RORγ-LBD produced in Sf9 cells and peptide solution were incubated with compounds, and the 520/490 TR-FRET ratio was measured. Human RORγ LUC assays were carried out in accordance with the method of Madoux et al.[31] with some modifications and described previously. EC50 was calculated by curve-fitting in GraphPad Prism. Detailed descriptions of synthesis for the compounds are described elsewhere[9],[22].
(In general: TR-FRET usually uses a lanthanide donor and a delayed reading to cut background.)

Assay [2] deals with T2, RORγ-LBD. Put plainly: FRET-based CoR peptide recruitment assay (dual TR-FRET). The format is biochemical. The following applies: for relative efficacy (RE) in CoR recruitment: compared with compound A. As to the method: as §1, with “Figure 1 The relative efficacy (RE) of CoR peptide recruitment to the RORγ-LBD and LUC activity by inverse agonists. […] Background activity in the absence of a standard inverse agonist is defined as 0% response; and maximum activity induced by a standard inverse agonist at 100μM as 100% response. […] A value of 100% is given to cells without inverse agonist in LUC assay. […] Detailed” for “Detailed”
as §2

Molecules are shown by their SMILES.

In the case of `CC(=O)N1CC(C(=O)Nc2ccc(C)cc2C)C(c2nnc(C3CC(CC(C)C)C3)n2C2CC2)C1` (stereo not shown) [compound A], the IL-17 release result in the assay on IL-17 release is recorded as “effectively suppressed IL-17 release in a dose-dependent manner”.
What is called EC50 is the concentration that produces a half-maximal response. In the case of `COc1ccc(-c2c(-c3nc(CC(=O)NCC4CCOCC4)cs3)cnn2C(C)(C)C)cc1` [compound T], the “production of IL-17” value in the assay with Th17 cells was “inhibits the production of IL-17”. In addition, the “LUC activity relative to compound A” value at Human RORγ is given as “nine times lower activity”; on Human RORγ (listed as Compound T), “nine-times lower than compound A”. The half-maximal effective concentration (EC50) at Human RORγ (luciferase reporter assay, means ± SE (n = 2–3)) was found to be 440 nM; on RORγ-LBD [1] it was 500 nM; on RORγ-LBD [2] (TR-FRET, GST-tagged RORγ-LBD, compound T n = 1) it was 250 nM. Further, the “relative efficacy (RE) in CoR recruitment” value on RORγ-LBD [2] is given as “about half that of compound A”; at RORγ-LBD [2] (listed as Compound T) it was “half the efficacy of compound A”.
For `C[C@@H]1CC[C@@]2(OC1)O[C@H]1C[C@H]3[C@@H]4CC[C@H]5C[C@@H](O)CC[C@]5(C)[C@H]4C[C@@H](O)[C@]3(C)[C@H]1[C@@H]2C` [rockogenin], on RORγ-LBD [2] (result in words), the “CoR peptide-recruiting activity in dual FRET assay” value is “not detected”.
